# Read-outs that look alike come from different tables or passages of the source.
# How the values were obtained:
# [1] = tested on: dogs with appendicular osteosarcoma
# From the text: All dogs underwent a pre-treatment tumor biopsy and collection of PBMC at study initiation. […] The defined study period was 15 days. Safety, tumoral pharmacodynamic (PD) modulation, correlation to surrogates (PBMC), and the relationship between PK and PD were study endpoints.
# Escalation through 5 planned dose cohorts was based on assessment of dose limiting toxicities (DLT) using VCOG modified-CTCAE convention [32]. Age (range, 3.7–11.9 years; median 7.9 years), sex (14 spayed females, 8 castrated males) and breed (5 mixed-breed and 17 purebred) were recorded for all dogs enrolled on study ( Table 3 : Patient Characteristics).
# Dogs underwent a complete physical examination, CBC, serum biochemical profile, UA and pre-treatment biopsies at Day 0. Vital signs (core temperature, pulse, respiratory rate) were recorded at baseline. […] Owners completed an Owner Assessment Form on Days 0, 8 and 15 to record impressions of their dog's clinical status throughout the study period.
# Blood samples were collected to define hematologic and biochemical DLT. CBC, biochemical profile and urinalysis were evaluated at Day 0, and then weekly (pre-operatively at Day 8 and Day 15) to define safety. The Veterinary Cooperative Oncology Group Common Toxicity Criteria for Adverse Events (VCOG-CTCAE) was used to determine DLT, defined as any grade 3 or grade 4 (hematologic or non-hematologic) events [32]. […] MTD was defined as one dose level below the maximum achieved in dose-escalation. Any and all adverse events were collected within the electronic database reporting system (C3D) following strict one-week reporting timelines.
# p/t-S6RP in PBMC = assay: PBMC p-S6RP/t-S6RP by electrochemiluminescence; format: in vivo, dog
# Experimental: Modulation of mTOR pathway targets were evaluated in matched tumor ( Figure 4A .) and PBMC samples ( Figure 4B .) to compare p-S6RP and p-AKT expression pre- and post-rapamycin treatment. ECL techniques were utilized to accurately quantify the relative percentage of phospho-protein over total protein (p/t) in tumor and PBMC. Quality control assessments defined 10 tumor and 8 PBMC samples eligible for evaluation. […] Modulation of mTOR pathway targets in PBMC and tumor samples were concordant.
# PBMCS were collected in two (2) 8 ml BD CPT vacutainers (Becton Dickinson, Franklin Lakes, NJ) with sodium heparin, each filled completely with whole blood. […]
# The samples (cell lines, tumor, PBMC) used for ECL were prepared based on the Meso-Scale Discovery (MSD) lysate preparation protocol (Meso-Scale Discovery, Gaithersburg, MD) using complete lysis buffer with protease and phosphatase inhibitors. For quantitative analysis of phospho-proteins, duplex t/p-AKT (S473) and duplex t/p-S6RP (S240/S244) were obtained from MSD, used following manufacturer's instructions, and read with Sector Imager 2400 (MSD). […] Out of the 19 paired tumor biopsies analyzed, 9 were excluded due to values below the detection limit, of which 8 were from one trial site. […] PBMC from 8 patients were analyzed for p-S6RP/t-S6RP and all data was shown.
# [2] = tested on: p-S6RP in canine osterosarcoma cell lines (BM, SK); assay: Immunoblot of p-S6RP in canine osteosarcoma cell lines; format: cell-based; settings: 100 nM, BM and SK cells
# Experimental: (§1) Protein concentration of lysates was determined by BCA protein assay (Pierce, Thermo Fischer Scientific, Rockford, IL). Lysates were separated with Invitrogen NuPage gels (Invitrogen, Carlsbad, CA) and transferred to nitrocellulose membranes. The blots were probed for the proteins of interest with specific antibodies followed by a secondary antibody (Cell Signaling Technology, Inc, Danvers, MA) and then incubated with SuperSignal chemiluminescence substrate (Pierce). The blots were then exposed to Kodak Biomax Light Film (Kodak, Rochester, NY). The antibodies against AKT and p-AKT (Ser473), S6RP and p-S6RP, and actin were obtained from Cell Signaling.
# (§2) Controls were Jurkat cells treated with LY (−) or PMA (+). B. Quantitative determination of total and p-S6RP (S240/244) with electrochemiluminescence (ECL) assay. C. […] (1.56 MB TIF) Click here for additional data file.
# [3] = tested on: p-S6RP in human breast cancer cell lines (MCF7 and MDA231); assay: Immunoblot of p-S6RP in human breast cancer cell lines; format: cell-based; settings: 100 nM, MCF7 and MDA231 cells
# Experimental: as §1, §2
# [4] = Rapamycin whole blood pharmacokinetics (HPLC-MS/MS, non-compartmental) in dogs with osteosarcoma; format: in vivo, dog; settings: for measurable trough levels: CD8, CD9; for concentration at 15 day / concentration at 8 day / concentration at 9 day / concentration at 48 h / Tmax / half-life / Cmax / AUC(0-t): dog, whole blood; for concentration at 15 day / concentration at 8 day / concentration at 9 day / concentration at 48 h: intramuscular; for concentration at 15 day: Day 15 (seven days after cessation), read-out: CD15; for concentration at 8 day: trough Day 8, median (range), read-out: CD8; for concentration at 9 day: trough Day 9, median (range), read-out: CD9; for concentration at 48 h: 48 h after first dose, read-out: C48h; for AUC(0-t): read-out: AUC0–48
# Experimental: Subsequent doses were administered on days 3–8. Additional pharmacokinetic samples were obtained on days 8 (192h, day of definitive resection) and 9 (hr 216, after last day of dosing) and 15 (360 hr). […] Whole blood was transferred to cyrovials and stored at −80°C until analysis. Whole blood, serum and plasma were collected from all patients. Serum and plasma samples were stored for post-hoc hypothesis generating assessments.
# The eluate was analyzed using HPLC with MS/MS detection. […] Clinical sample results were calculated using peak area ratios and calibration curves were generated using a weighted (1/x^2) linear least-squares regression. […] All data were acquired, processed, and reported using Applied Biosystems/MDS-Sciex Analyst Version 1.4 software (www.lifetechnologies.com, Carlsbad, CA).
# Area under the concentration time curve to the time point measured at 48hr after the first dose (AUC0–48h) was calculated with the linear trapezoidal method. The terminal rate constant was derived from the slope of the natural log transformed concentrations and times on the terminal elimination phase of the decay curve. Terminal elimination half-life was calculated by dividing 0.693 by the terminal rate constant. The relationship of pharmacokinetic parameters and pharmacodynamic variables were examined using scatter plots.
# [5] = tested on: p/t-S6RP (S240/244) in canine osteosarcoma cell lines (BW and SK); assay: ECL quantification of p/t-S6RP in canine osteosarcoma cell lines; format: cell-based
# Experimental: as §1
# The samples (cell lines, tumor, PBMC) used for ECL were prepared based on the Meso-Scale Discovery (MSD) lysate preparation protocol (Meso-Scale Discovery, Gaithersburg, MD) using complete lysis buffer with protease and phosphatase inhibitors. For quantitative analysis of phospho-proteins, duplex t/p-AKT (S473) and duplex t/p-S6RP (S240/S244) were obtained from MSD, used following manufacturer's instructions, and read with Sector Imager 2400 (MSD). A total of 25 ug of lysates were used per well for the duplex assays. Out of the 19 paired tumor biopsies analyzed, 9 were excluded due to values below the detection limit, of which 8 were from one trial site. […] PBMC from 8 patients were analyzed for p-S6RP/t-S6RP and all data was shown. […]
# [6] = both, various breeds (5 mixed-breed and 17 purebred dogs), dog, in vivo, 15 days
# [7] = Mixed Breed (2 dogs), Boxer (1 dog), 0.04 mg/kg IM daily, N=3
# [8] = Mixed Breed (2 dogs), Boxer (1 dog), 0.04 mg/kg IM, after first dose, median (range), N=3
# [9] = 0.01 mg/kg IM, after first dose, median (range), N=3
# [10] = 0.06 mg/kg IM, after first dose, median (range), N=7
# [11] = 0.08 mg/kg IM, after first dose, median (range), N=4
# [12] = 0.02 mg/kg IM, after first dose, median (range), N=4
compound,measurement,setting,value
"CO[C@H]1C[C@@H]2CC[C@@H](C)[C@@](O)(O2)C(=O)C(=O)N2CCCC[C@H]2C(=O)O[C@H]([C@H](C)C[C@@H]2CC[C@@H](O)[C@H](OC)C2)CC(=O)[C@H](C)/C=C(\C)[C@@H](O)[C@@H](OC)C(=O)[C@H](C)C[C@H](C)/C=C/C=C/C=C/1C [rapamycin, Rapamycin]","anorexia, self-limiting non-dose limiting toxicity (grade 1,2), number of dogs",[1]; [6],2
same,"diarrhea, self-limiting non-dose limiting toxicity (grade 1,2), number of dogs",[1]; [6],1
same,"thrombocytopenia, self-limiting non-dose limiting toxicity (grade 1,2), number of dogs",[1]; [6],1
same,"vomiting, self-limiting non-dose limiting toxicity (grade 1,2), number of dogs",[1]; [6],2
same,febrile episodes reported,"[1]; dog, in vivo",two
same,immunosuppression and surgical incision healing delays,"[1]; dog, in vivo",Neither immunosuppression nor surgical incision healing delays were reported
same,"lymphopenia, post-operative infection rate, surgical incision healing delays","[1]; dog, in vivo","no evident lymphopenia, increased post-operative infection rate, nor surgical incision healing delays"
same,"neurological, respiratory, renal, or biochemical toxicities related to treatment","[1]; dog, in vivo",no clinically significant
same,tolerability of dose escalation,"[1]; dog, in vivo",well tolerated
same,maximally tolerated dose (MTD),"[1]; escalation to 0.08 mg/kg IM daily, n = 19",not defined
same,PBMC p/t-S6RP inhibition,"p/t-S6RP in PBMC; Day 8, maintained through Day 15, n = 8, p<0.0001",highly significant
same,dogs with PBMC phosphorylation of S6RP significantly inhibited,p/t-S6RP in PBMC; Day 8 after rapamycin therapy,8/8
same,rapamycin-mediated inhibition of p-S6RP (immunoblot),[2],inhibition of p-S6RP
same,rapamycin-mediated inhibition of p-S6RP (immunoblot),[3],inhibition of p-S6RP
same,"median trough concentrations on day 8 and 9 (CD8, CD9)",[4]; 0.06 mg/kg (approx 2.1 mg/day) IM daily,greater than 10 ng/mL
same,"median trough concentrations on day 8 and 9 (CD8, CD9)",[4]; 0.08 mg/kg (approx 2.8 mg/day) IM daily,greater than 10 ng/mL
same,measurable trough levels,"[4]; 4th dose cohort (0.06 mg/kg, approx 2.1 mg)",≥ 10 ng/mL
same,measurable trough levels,"[4]; 5th dose cohort (0.08 mg/kg, approx 2.8 mg)",≥ 10 ng/mL
same,concentration at 15 day,"[4]; Mixed Breed (2 dogs), Boxer (1 dog), 0.04 mg/kg IM daily, median (range), N=3",1.56 ng/mL
same,concentration at 8 day,[4]; [7],6.62 ng/mL
same,concentration at 9 day,[4]; [7],7.92 ng/mL
same,concentration at 48 h,"[4]; Mixed Breed (2 dogs), Boxer (1 dog), 0.04 mg/kg IM, median (range), N=3",1.86 ng/mL
same,Tmax,[4]; [8],24 h
same,half-life,"[4]; Mixed Breed (2 dogs), Boxer (1 dog), 0.04 mg/kg IM, terminal half-life, median (range), N=3, read-out: T1/2 (converted)",62.7 h
same,Cmax,[4]; [8],2.87 ng/mL
same,AUC(0-t),[4]; [8],105 ng·h/mL
same,Steady state,"[4]; after 8 days of exposure, daily IM",not achieved
same,Tmax,"[4]; both sexes, all dogs, 0.01–0.08 mg/kg IM, range",2 to 48 h
same,half-life,"[4]; both sexes, dogs, IM, read-out: terminal half-life",> 60 h
same,half-life,"[4]; im, 0.01 mg/kg, read-out: T1/2 (converted)",115 h
same,concentration at 15 day,"[4]; 0.01 mg/kg IM daily, median (range), N=3",0.45 ng/mL
same,concentration at 8 day,"[4]; 0.01 mg/kg IM daily, N=3",2.78 ng/mL
same,concentration at 9 day,"[4]; 0.01 mg/kg IM daily, N=3",1.92 ng/mL
same,concentration at 48 h,"[4]; 0.01 mg/kg IM, median (range), N=3",0.91 ng/mL
same,concentration at 15 day,"[4]; 0.02 mg/kg IM daily, median (range), N=4",0.86 ng/mL
same,concentration at 8 day,"[4]; 0.02 mg/kg IM daily, N=4",5.63 ng/mL
same,concentration at 9 day,"[4]; 0.02 mg/kg IM daily, N=4",5.93 ng/mL
same,concentration at 48 h,"[4]; 0.02 mg/kg IM, median (range), N=4",1.26 ng/mL
same,concentration at 15 day,"[4]; 0.06 mg/kg IM daily, median (range), N=7",1.04 ng/mL
same,concentration at 8 day,"[4]; 0.06 mg/kg IM daily, N=7",9.84 ng/mL
same,concentration at 9 day,"[4]; 0.06 mg/kg IM daily, N=7",9.3 ng/mL
same,concentration at 48 h,"[4]; 0.06 mg/kg IM, median (range), N=7",3.61 ng/mL
same,concentration at 15 day,"[4]; 0.08 mg/kg IM daily, median (range), N=4",3.66 ng/mL
same,concentration at 8 day,"[4]; 0.08 mg/kg IM daily, N=4",15.4 ng/mL
same,concentration at 9 day,"[4]; 0.08 mg/kg IM daily, N=4",16.4 ng/mL
same,concentration at 48 h,"[4]; 0.08 mg/kg IM, median (range), N=4",4.6 ng/mL
same,Tmax,[4]; [9],24 h
same,Tmax,"[4]; 0.02 mg/kg IM, after first dose, median, N=4",24 h
same,half-life,"[4]; 0.02 mg/kg IM, terminal half-life, median (range), N=4, read-out: T1/2 (converted)",70.8 h
same,Tmax,[4]; [10],6 h
same,half-life,"[4]; 0.06 mg/kg IM, terminal half-life, median (range), N=7, read-out: T1/2 (converted)",72.7 h
same,Tmax,[4]; [11],15 h
same,half-life,"[4]; 0.08 mg/kg IM, terminal half-life, median (range), N=4, read-out: T1/2 (converted)",86.6 h
same,Cmax,[4]; [9],1.27 ng/mL
same,AUC(0-t),[4]; [9],47.4 ng·h/mL
same,Cmax,[4]; [12],1.69 ng/mL
same,AUC(0-t),[4]; [12],64.3 ng·h/mL
same,Cmax,[4]; [10],7.29 ng/mL
same,AUC(0-t),[4]; [10],285 ng·h/mL
same,Cmax,[4]; [11],12.1 ng/mL
same,AUC(0-t),[4]; [11],309 ng·h/mL
same,systemic exposure (Cmax and AUC0–48h) versus dose,[4]; dose range 0.01–0.08 mg/kg IM,increased proportionally to rapamycin dose
same,reduction of p/t-S6RP,"[5]; BW and SK cells, rapamycin 100 nM for 4 hours vs untreated controls",approximately 50 ×
same,inhibition of down-stream targets of mTOR,"[5]; canine osteosarcoma cell lines, western blot and ECL",inhibits down-stream targets of mTOR in a dose-dependent fashion

# Reference: PMC2882366 (PLoS ONE, 2010)
